In ChEMBL document CHEMBL1201862, “PubChem BioAssay data set” (2004):
Calls of active or inactive are those of the source.

Tests used:
[1] = molecular target: Delta-type opioid receptor (Homo sapiens, UniProt P41143); assay: Counterscreen for agonists of heterodimerization of the mu 1 (OPRM1) and delta 1 (OPRD1) opioid receptors: Luminescence-based cell-based high throughput dose response assay to identify agonists of OPRD1 homodimerization. [Related pubchem assays (depositor defined):AID504326, AID504355, AID504692, AID504904, AID504905]; type: functional
Delta-type opioid receptor, sequence (P41143 whole entry): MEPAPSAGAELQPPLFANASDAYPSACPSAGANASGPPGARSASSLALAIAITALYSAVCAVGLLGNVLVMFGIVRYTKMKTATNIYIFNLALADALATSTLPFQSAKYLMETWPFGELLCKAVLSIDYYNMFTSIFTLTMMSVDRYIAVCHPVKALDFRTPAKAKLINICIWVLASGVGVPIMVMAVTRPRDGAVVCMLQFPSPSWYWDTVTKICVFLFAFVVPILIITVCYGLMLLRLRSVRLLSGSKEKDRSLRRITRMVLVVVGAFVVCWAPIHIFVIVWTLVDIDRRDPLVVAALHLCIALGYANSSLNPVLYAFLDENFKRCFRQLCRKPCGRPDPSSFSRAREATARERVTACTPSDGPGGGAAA

Mu-type opioid receptor = Mu-type opioid receptor (Homo sapiens, UniProt P35372); assay: Counterscreen for agonists of heterodimerization of the mu 1 (OPRM1) and delta 1 (OPRD1) opioid receptors: Luminescence-based cell-based high throughput dose response assay to identify agonists of OPRM1 homodimerization.; type: functional;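 also: U2OS cells expressing OPRM1 and beta-arrestin as split beta-galactosidase partners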
Mu-type opioid receptor, sequence (P35372 whole entry): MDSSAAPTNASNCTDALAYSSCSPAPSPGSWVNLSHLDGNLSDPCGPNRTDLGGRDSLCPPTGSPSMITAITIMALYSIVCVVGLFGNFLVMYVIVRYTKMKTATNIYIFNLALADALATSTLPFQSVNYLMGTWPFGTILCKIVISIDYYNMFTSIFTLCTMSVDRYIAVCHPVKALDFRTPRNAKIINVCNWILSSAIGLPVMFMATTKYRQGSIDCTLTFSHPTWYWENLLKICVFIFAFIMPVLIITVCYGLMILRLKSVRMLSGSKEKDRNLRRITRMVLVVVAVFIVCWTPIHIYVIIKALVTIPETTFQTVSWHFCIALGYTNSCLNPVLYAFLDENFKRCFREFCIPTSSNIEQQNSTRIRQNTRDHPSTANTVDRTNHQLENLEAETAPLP

[2] = molecular target: T1, Short transient receptor potential channel 4 (Mus musculus, UniProt Q9QUQ5); assay: mouse TRPC4 channel activators, dose response, cell-based, HEK293 TRPC4/mu-opioid, Fluo-4 calcium (AID 434937); type: functional
T1 sequence (Q9QUQ5 whole entry): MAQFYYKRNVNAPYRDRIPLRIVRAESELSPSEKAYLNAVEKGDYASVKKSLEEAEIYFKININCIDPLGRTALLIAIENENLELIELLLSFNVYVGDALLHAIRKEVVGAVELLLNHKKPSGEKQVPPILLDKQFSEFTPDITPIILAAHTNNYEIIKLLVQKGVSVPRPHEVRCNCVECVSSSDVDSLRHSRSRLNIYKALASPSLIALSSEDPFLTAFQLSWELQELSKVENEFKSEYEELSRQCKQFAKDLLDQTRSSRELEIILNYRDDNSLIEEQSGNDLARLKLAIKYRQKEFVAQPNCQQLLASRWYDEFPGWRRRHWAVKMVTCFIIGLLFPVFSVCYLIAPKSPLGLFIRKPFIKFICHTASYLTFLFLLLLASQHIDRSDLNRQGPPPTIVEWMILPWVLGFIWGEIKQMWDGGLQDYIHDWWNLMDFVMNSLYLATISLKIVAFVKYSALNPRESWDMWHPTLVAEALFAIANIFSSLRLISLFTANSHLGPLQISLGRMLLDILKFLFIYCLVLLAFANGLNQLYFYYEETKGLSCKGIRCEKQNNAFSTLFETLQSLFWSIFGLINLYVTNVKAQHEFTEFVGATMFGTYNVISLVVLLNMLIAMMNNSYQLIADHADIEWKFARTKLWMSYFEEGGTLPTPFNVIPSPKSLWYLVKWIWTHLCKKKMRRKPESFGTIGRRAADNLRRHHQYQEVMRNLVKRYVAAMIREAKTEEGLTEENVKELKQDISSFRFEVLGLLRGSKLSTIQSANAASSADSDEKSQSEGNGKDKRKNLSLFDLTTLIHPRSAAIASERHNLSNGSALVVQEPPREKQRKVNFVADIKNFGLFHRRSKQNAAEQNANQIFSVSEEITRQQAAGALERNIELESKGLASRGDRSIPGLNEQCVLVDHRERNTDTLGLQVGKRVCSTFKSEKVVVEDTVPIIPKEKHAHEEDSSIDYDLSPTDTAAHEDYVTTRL

[3] = molecular target: 5-hydroxytryptamine receptor 5A (Homo sapiens, UniProt P47898); assay: Counterscreen for agonists of OPRM1-OPRD1 heterodimerization: luminescence-based cell-based high throughput dose response assay to identify agonists of 5-hydroxytryptamine (serotonin) 5A receptor (HTR5A). [Related pubchem assays (depositor defined):AID504326, AID504355, AID504692, AID504904, AID504905]; type: functional
5-hydroxytryptamine receptor 5A, sequence (P47898 whole entry): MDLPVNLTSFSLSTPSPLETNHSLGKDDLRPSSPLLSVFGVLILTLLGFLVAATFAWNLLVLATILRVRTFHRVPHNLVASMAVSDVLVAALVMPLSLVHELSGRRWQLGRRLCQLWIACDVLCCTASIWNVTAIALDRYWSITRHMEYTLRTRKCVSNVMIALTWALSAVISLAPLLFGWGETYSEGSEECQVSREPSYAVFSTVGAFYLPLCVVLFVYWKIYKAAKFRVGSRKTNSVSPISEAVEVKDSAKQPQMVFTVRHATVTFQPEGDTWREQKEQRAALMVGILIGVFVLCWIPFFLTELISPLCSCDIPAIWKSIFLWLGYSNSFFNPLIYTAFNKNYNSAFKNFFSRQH

[4] = cytotoxicity in HEK-293T cells, dose response, cytotoxicity control for TCR NF-kB inhibitor project, luminescence, T-cell screen hits (AID 489026); type: functional, cell-based;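 also: cells exposed to compound about 14 hours before the viability readout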
[5] = Luminescence Cell-Based Dose Response HTS to Identify Inhibitors of 5'UTR Stem-Loop Driven Prion Protein mRNA Translation in H4 Neuroglioblastoma Cells. [Related pubchem assays: 1827 (Project Summary), 1813 (Primary HTS)]; type: functional
[6] = inhibitors of firefly luciferase expression or activity, dose response, H4 neuroglioma cells, luminescence (AID 1990); type: functional, cell-based
BJ [7] = assay: cytotoxicity toward BJ-TERT fibroblasts, dose response, cell-based, RAS-independent, luminescence (AID 1933); type: functional; settings: Homo sapiens
BJ [8] = assay: cells; type: functional, cell-based; settings: Homo sapiens
[9] = inhibitors of SNCA 5'UTR-driven reporter translation, confirmation, H4 neuroglioma cells, luminescence (AID 1988); type: functional, cell-based
[10] = cytotoxicity toward DRD oncogenic fibroblasts, dose response, cell-based, non-viral oncogenic, luminescence (AID 1934); type: functional; settings: Homo sapiens
BJ [11] = assay: cytotoxicity toward BJ-TERT-LT-ST fibroblasts, dose response, cell-based, RAS-independent, luminescence (AID 1935); type: functional; settings: Homo sapiens;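 also: BJ fibroblasts immortalized with TERT plus LT and ST oncogenes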
[12] = molecular target: Glucose-6-phosphate 1-dehydrogenase (Homo sapiens, UniProt P11413); assay: human G6PD enzyme inhibitors, dose response, selectivity assay for P. falciparum G6PD inhibitor project, biochemical, fluorescence (AID 504792); type: functional
Glucose-6-phosphate 1-dehydrogenase, sequence (P11413 whole entry): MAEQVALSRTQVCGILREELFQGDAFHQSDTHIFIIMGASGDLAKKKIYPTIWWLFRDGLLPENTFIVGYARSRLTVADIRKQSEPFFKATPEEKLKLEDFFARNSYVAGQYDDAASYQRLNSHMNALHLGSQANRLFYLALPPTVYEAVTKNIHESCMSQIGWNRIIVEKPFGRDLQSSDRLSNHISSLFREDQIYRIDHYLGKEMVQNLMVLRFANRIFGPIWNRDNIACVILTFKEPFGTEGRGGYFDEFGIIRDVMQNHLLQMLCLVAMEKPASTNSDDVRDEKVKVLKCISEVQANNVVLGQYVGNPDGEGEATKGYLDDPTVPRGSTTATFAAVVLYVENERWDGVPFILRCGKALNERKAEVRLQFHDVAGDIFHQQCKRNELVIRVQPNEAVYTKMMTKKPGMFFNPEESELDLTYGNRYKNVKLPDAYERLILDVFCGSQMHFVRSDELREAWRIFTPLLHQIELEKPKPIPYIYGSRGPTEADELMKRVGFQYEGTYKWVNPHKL

[13] = molecular target: T2, Sentrin-specific protease 8 (Homo sapiens, UniProt Q96LD8); type: functional;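 also: luminescence read-out of SENP8 inhibition, dose-response confirmation following an ultra-high-throughput screen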
T2 sequence (Q96LD8 whole entry): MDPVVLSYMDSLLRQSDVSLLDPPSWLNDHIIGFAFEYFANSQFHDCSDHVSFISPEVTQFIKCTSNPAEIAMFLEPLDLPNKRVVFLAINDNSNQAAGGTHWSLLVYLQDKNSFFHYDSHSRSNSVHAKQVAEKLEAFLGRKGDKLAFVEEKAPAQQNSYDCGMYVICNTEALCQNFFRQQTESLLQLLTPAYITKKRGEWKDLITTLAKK

Caspase-3 = molecular target: T3, Caspase-3 (Homo sapiens, UniProt P42574); type: functional;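 also: Dose-response selectivity test against caspase-3 for candidate inhibitors of sentrin-specific proteases (SENPs)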
T3 sequence (P42574 whole entry): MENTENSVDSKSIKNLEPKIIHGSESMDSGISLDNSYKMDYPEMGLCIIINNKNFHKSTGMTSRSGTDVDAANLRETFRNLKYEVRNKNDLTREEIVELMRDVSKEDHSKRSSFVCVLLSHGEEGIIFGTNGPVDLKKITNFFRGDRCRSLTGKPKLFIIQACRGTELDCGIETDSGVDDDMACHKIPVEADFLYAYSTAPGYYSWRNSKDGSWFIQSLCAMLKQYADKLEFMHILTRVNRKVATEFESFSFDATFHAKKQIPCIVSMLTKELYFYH

[14] = molecular target: T4, Sentrin-specific protease 6 (Homo sapiens, UniProt Q9GZR1); type: functional;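 also: Luminescence-based dose-response confirmatory assay of SENP6 inhibition, following up an ultra-high-throughput screen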
T4 sequence (Q9GZR1 whole entry): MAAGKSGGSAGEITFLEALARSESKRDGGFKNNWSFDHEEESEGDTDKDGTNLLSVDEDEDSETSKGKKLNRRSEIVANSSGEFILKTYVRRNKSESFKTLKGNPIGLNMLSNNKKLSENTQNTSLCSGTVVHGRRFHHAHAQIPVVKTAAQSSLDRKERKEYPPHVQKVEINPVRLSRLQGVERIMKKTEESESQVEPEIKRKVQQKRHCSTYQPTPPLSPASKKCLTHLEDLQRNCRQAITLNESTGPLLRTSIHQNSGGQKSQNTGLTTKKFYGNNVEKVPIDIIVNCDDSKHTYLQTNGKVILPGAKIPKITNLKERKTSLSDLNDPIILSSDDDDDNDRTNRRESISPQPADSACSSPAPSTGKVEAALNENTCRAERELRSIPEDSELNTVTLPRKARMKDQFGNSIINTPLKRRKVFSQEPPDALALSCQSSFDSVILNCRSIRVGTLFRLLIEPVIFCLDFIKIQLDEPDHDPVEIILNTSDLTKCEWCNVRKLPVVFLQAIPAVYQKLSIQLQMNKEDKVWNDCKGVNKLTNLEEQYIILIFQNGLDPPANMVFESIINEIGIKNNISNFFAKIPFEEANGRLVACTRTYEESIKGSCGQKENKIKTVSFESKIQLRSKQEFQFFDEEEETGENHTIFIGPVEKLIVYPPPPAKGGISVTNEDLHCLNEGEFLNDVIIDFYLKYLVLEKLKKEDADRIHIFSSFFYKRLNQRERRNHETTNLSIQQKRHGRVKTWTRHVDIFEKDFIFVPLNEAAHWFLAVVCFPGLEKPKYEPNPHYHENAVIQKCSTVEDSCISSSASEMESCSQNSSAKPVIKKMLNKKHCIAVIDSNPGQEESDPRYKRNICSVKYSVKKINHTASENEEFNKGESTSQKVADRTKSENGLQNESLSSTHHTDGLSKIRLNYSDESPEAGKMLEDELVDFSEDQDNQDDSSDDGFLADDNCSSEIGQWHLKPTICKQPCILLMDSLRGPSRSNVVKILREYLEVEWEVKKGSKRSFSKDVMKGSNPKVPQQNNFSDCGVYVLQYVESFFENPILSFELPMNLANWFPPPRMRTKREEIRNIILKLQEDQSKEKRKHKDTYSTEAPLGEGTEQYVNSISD

[15] = molecular target: T5, Sentrin-specific protease 7 (Homo sapiens, UniProt Q9BQF6); type: functional;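 also: Luminescence-based dose-response confirmation of ultra-high-throughput screening hits, measuring inhibition of SENP7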
T5 sequence (Q9BQF6 whole entry): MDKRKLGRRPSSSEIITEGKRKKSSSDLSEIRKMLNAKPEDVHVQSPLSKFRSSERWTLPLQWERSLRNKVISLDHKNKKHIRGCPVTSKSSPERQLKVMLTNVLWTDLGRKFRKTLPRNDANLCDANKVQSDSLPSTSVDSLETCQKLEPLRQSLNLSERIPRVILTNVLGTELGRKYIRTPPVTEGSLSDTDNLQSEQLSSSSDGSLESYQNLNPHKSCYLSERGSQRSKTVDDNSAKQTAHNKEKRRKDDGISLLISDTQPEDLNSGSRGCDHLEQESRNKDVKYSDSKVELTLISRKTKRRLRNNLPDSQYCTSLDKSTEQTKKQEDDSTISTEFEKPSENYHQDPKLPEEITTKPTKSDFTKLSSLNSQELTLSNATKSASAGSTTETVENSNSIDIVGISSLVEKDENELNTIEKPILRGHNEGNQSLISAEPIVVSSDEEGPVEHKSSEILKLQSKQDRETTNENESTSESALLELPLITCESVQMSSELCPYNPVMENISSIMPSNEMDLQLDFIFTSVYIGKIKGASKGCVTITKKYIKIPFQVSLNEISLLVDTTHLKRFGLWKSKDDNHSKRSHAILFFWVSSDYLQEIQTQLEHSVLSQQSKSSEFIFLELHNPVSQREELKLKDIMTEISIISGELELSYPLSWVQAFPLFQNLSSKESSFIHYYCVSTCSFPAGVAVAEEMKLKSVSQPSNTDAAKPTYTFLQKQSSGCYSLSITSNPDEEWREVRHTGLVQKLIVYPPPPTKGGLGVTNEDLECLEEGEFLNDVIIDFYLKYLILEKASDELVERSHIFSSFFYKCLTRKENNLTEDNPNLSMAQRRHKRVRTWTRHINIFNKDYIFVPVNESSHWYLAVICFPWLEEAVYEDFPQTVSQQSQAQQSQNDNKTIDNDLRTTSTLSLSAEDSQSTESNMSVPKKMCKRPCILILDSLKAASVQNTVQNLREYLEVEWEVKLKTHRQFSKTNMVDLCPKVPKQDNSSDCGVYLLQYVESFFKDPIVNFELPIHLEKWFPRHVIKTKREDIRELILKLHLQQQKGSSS

[16] = Luminescence Cell-Based Dose Retest to Confirm Inhibitors of Cancer Stem Cells. [Related pubchem assays (depositor defined):AID2717, AID2721]; type: functional; settings: Homo sapiens
cells = type: functional
[17] = inhibitors of intracellular T. cruzi replication, confirmation, NIH3T3 host cells, beta-gal luminescence (AID 2044); type: functional, cell-based;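 also: intracellular parasites grown in NIH/3T3 mouse fibroblasts as host cells; luminescent beta-galactosidase reporter signal from transgenic T. cruzi replicating inside host cells; inhibitors lower the luminescence signal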
[18] = cytotoxicity toward NIH3T3 fibroblasts, dose response, counter-screen, cell-based, ATP luminescence, mouse fibroblasts (AID 2010); type: functional;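 also: cells exposed to compound for about 90 hours before reading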
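For AC50 in this document: cells exposed to compound for roughly 70 hours or longer before luminescence read.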

SMILES	EC50 [1]	EC50 (Mu-type opioid receptor)	EC50 [2]	EC50 [3]	IC50 [12]	IC50 [13]	IC50 (Caspase-3)	IC50 [14]	IC50 [15]	other results
CCc1cccc(C)c1N=C(S)NCC(c1cccnc1)N(C)C (centres undefined)	79.4 µM (inactive)	> 92.5 µM (inactive)	0.0467 µM (active)	> 92.5 µM (inactive)						
O=C(c1cc(-c2ccncc2)nc2c(Cl)cccc12)N1CCN(c2ccccc2F)CC1										IC50 [4]: > 80 µM (inactive); EC50 [5]: > 120 µM (not active); EC50 [6]: 7.93 µM (inconclusive); EC50 (BJ [7]): 8.6 µM (inconclusive); EC50 (BJ [8]): 18.9 µM (active); EC50 [9]: 3.67 µM (active); EC50 [10]: 12.8 µM (inconclusive); EC50 (BJ [11]): 4.08 µM (active)
COc1ccc(N=C2C(=S)N(c3ccc(OC)cc3)C(=NS(=O)(=O)c3ccccc3)N2c2ccccc2)cc1					> 80 µM (inactive)					
Brc1ccc(NN=Nc2ccccc2)cc1						10.9 µM (active)	27.1 µM (active)	11.2 µM (active)	4.66 µM (active)	
CN(C)CCCN(C(=O)c1ccc(S(=O)(=O)N2CCc3ccccc3C2)cc1)c1nc2c(F)cc(F)cc2s1	> 92.5 µM (inactive)	5.1 µM (active)	1.19 µM (active)	> 92.5 µM (inactive)						
CCOC(=O)C1(CC2CC2)CCN(Cc2cnc(-c3ccccc3C)nc2)CC1	> 92.5 µM (inactive)	> 92.5 µM (inactive)	5.31 µM (active)	> 92.5 µM (inactive)						
O=C(Nc1nnc(S(=O)(=O)N2CCOCC2)s1)c1ccc(F)cc1					> 80 µM (inactive)					
O=C(Nc1ccccc1)c1ccc(-c2ccccc2Cl)o1						> 100 µM (inactive)	74.3 µM (active)	> 100 µM (inactive)	4.47 µM (active)	
CC(C)(C)c1ccc(O)c(O)c1					> 80 µM (inactive)					AC50 [16]: 4.47 µM (active)
O=C(OCC(=O)N1CCC(c2ccccc2)=N1)c1ccc([N+](=O)[O-])s1						5.92 µM (active)	28.2 µM (active)	7.19 µM (active)	18.9 µM (active)	IC50 (cells): 1.13 µM (active); EC50 [17]: 0.809 µM (active); EC50 [18]: > 30 µM (not active)
